Experimental findings from patent US8852632B2, “Pharmaceutical formulation containing a release rate controlling composition” (Merck Sharp & Dohme Corp., priority 2004, dated 2014) are described below.

A short description of the series: Hygroscopicity (vapor sorption analysis). The series is classed as physicochemical. How it is done:
Hygroscopicity data was obtained on a VTI Symmetrical Vapor Sorption Analyzer Model SGA-1. Data was collected at room temperature from 5-95% relative humidity and back, 5% relative humidity change per step. Equilibrium conditions were 0.01 weight percent change in 5 minutes with a maximum equilibration time of 180 minutes. […] When equilibrated back down to 5% RH, the material returned back to approximately its dry weight.

With `Cc1nnc(C(=O)NC(C)(C)c2nc(C(=O)NCc3ccc(F)cc3)c(O)c(=O)n2C)o1`, the “XRPD analysis after the hygroscopicity experiment (phase stability)” value (after cycling 5-95% relative humidity and back) was “had not changed phases”. Moreover, the “weight increase (hygroscopicity)” value (equilibrated at 95% RH at 25° C.) turned out to be 1.8%.
